Data published in patent US20240239792A1, “MODULATORS OF BCL-2 OR BCL-2/BCL-XL AND USES THEREOF” (APPICINE THERAPEUTICS (HK) LIMITED, priority 2021, published 2024).

Tests used:
BCL-2 = molecular target: T1, BCL-2 (Homo sapiens, UniProt P10415); assay: HTRF BCL-2/BAK assay (Cisbio); format: binding; conditions: recombinant human Tag1-BCL-2 2 nM, Tag2-BAK 10 nM
T1 construct: purchased Cisbio 63ADK000CB01PEG
Experimental: (§1) Then the pre-mixed anti-Tag1-Eu^3+ and anti-tag2-XL665 were added to the plate and further incubated at room temperature for another 2 hours. The signals ([…]) were read on Envision 2104 instrument. The IC50 for each compound was derived from fitting the signal of 665/615 nM to the increasing compound concentration.
(§2) Using the above assays, the following compounds were tested.

BCL-XL = molecular target: T2, BCL-XL (Homo sapiens, UniProt Q07817); assay: HTRF BCL-XL/BAK assay (Cisbio); format: binding; conditions: recombinant human Tag1-BCL-XL 2 nM, Tag2-BAK 5 nM
T2 construct: purchased Cisbio 63ADK000CB04PEG
T2 sequence (Q07817 whole entry): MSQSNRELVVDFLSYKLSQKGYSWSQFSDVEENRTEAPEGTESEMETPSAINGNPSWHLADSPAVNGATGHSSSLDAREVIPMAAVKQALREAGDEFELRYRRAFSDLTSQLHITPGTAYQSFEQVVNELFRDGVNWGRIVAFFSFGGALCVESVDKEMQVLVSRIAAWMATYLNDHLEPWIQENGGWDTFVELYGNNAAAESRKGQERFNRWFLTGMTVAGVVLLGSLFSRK
Experimental: as §1, §2

DOHH2 cells = assay: CellTiter-Glo cell proliferation assay, DOHH2 cells; format: cell-based; conditions: Homo sapiens, DOHH-2, 72 hours
Procedure, shortened: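 DOHH2 cells seeded in DMEM + 10% FBS, exposed to serially diluted compound for 72 h at 37 °C, 5% CO2. Viability read by CellTiter-Glo luminescence; GI50 calculated.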

T1 sequence (P10415 whole entry): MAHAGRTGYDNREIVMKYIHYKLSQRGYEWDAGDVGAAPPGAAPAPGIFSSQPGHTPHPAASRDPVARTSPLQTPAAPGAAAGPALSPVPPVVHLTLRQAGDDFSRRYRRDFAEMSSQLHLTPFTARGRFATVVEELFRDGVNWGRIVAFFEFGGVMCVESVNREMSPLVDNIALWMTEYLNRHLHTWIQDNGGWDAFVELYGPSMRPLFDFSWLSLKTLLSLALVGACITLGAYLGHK

IC50 (BCL-2) [nM] | IC50 (BCL-XL) [nM] | Compound | GI50 (DOHH2 cells) [nM]
< 20 | 200 to 2000 | CC(C)c1cccc2c1CCCCC2N1CCN(c2ccc(C(=O)NS(=O)(=O)c3ccc(NCC4CCOCC4)c([N+](=O)[O-])c3)c(Oc3cnc4[nH]ccc4c3)c2)CC1 (stereo not drawn) [Compound 51, 2-((1H-pyrrolo[2,3-b]pyridin-5-yl)oxy)-4-(4-(1-isopropyl-6,7,8,9-tetrahydro-5H-benzo[7]annulen-5-yl)piperazin-1-yl)-N-((3-nitro-4-(((tetrahydro-2H-pyran-4-yl)methyl)amino)phenyl)sulfonyl)benzamide] | 500 to 5000
20 to 200 | > 2000 | O=C(NS(=O)(=O)c1ccc(NCC2CCOCC2)c([N+](=O)[O-])c1)c1ccc(N2CCN(C3CCCCc4c(-c5cn[nH]c5)cccc43)CC2)cc1Oc1cnc2[nH]ccc2c1 (stereo not drawn) [Compound 52, 4-(4-(1-(1H-pyrazol-4-yl)-6,7,8,9-tetrahydro-5H-benzo[7]annulen-5-yl)piperazin-1-yl)-2-((1H-pyrrolo[2,3-b]pyridin-5-yl)oxy)-N-((3-nitro-4-(((tetrahydro-2H-pyran-4-yl)methyl)amino)phenyl)sulfonyl)benzamide] | > 5000
< 20 | < 20 | O=C(NS(=O)(=O)c1ccc(NCC2CCn3ccnc3C2)c([N+](=O)[O-])c1)c1ccc(N2CCN(C3CCCCc4c(Cl)cccc43)CC2)cc1Oc1cnc2[nH]ccc2c1 (stereo not drawn) [Compound 53, 2-((1H-pyrrolo[2,3-b]pyridin-5-yl)oxy)-4-(4-(1-chloro-6,7,8,9-tetrahydro-5H-benzo[7]annulen-5-yl)piperazin-1-yl)-N-((3-nitro-4-(((5,6,7,8-tetrahydroimidazo[1,2-a]pyridin-7-yl)methyl)amino)phenyl)sulfonyl)benzamide] | 50 to 500
< 20 | > 2000 | O=C(NS(=O)(=O)c1ccc(NCC2CCOCC2)c([N+](=O)[O-])c1)c1ccc(N2CCN(C3CCCCc4c(-c5ccn[nH]5)cccc43)CC2)cc1Oc1cnc2[nH]ccc2c1 (stereo not drawn) [Compound 54, 4-(4-(1-(1H-pyrazol-3-yl)-6,7,8,9-tetrahydro-5H-benzo[7]annulen-5-yl)piperazin-1-yl)-2-((1H-pyrrolo[2,3-b]pyridin-5-yl)oxy)-N-((3-nitro-4-(((tetrahydro-2H-pyran-4-yl)methyl)amino)phenyl)sulfonyl)benzamide] | 500 to 5000
20 to 200 | > 2000 | CS(=O)(=O)Nc1cccc2c1CCCCC2N1CCN(c2ccc(C(=O)NS(=O)(=O)c3ccc(NCC4CCOCC4)c([N+](=O)[O-])c3)c(Oc3cnc4[nH]ccc4c3)c2)CC1 (stereo not drawn) [Compound 56, 2-((1H-pyrrolo[2,3-b]pyridin-5-yl)oxy)-4-(4-(1-(methylsulfonamido)-6,7,8,9-tetrahydro-5H-benzo[7]annulen-5-yl)piperazin-1-yl)-N-((3-nitro-4-(((tetrahydro-2H-pyran-4-yl)methyl)amino)phenyl)sulfonyl)benzamide] | > 5000
< 20 | 200 to 2000 | CC(CO)c1cccc2c1CCCCC2N1CCN(c2ccc(C(=O)NS(=O)(=O)c3ccc(NCC4CCOCC4)c([N+](=O)[O-])c3)c(Oc3cnc4[nH]ccc4c3)c2)CC1 (stereo not drawn) [Compound 61, 2-((1H-pyrrolo[2,3-b]pyridin-5-yl)oxy)-4-(4-(1-(1-hydroxypropan-2-yl)-6,7,8,9-tetrahydro-5H-benzo[7]annulen-5-yl)piperazin-1-yl)-N-((3-nitro-4-(((tetrahydro-2H-pyran-4-yl)methyl)amino)phenyl)sulfonyl)benzamide] | 500 to 5000
20 to 200 | > 2000 | CCP(=O)(CC)c1cccc2c1CCCCC2N1CCN(c2ccc(C(=O)NS(=O)(=O)c3ccc(NCC4CCOCC4)c([N+](=O)[O-])c3)c(Oc3cnc4[nH]ccc4c3)c2)CC1 (stereo not drawn) [Compound 62, 2-((1H-pyrrolo[2,3-b]pyridin-5-yl)oxy)-4-(4-(1-(diethylphosphoryl)-6,7,8,9-tetrahydro-5H-benzo[7]annulen-5-yl)piperazin-1-yl)-N-((3-nitro-4-(((tetrahydro-2H-pyran-4-yl)methyl)amino)phenyl)sulfonyl)benzamide] | > 5000
20 to 200 | > 2000 | CP(C)(=O)c1cccc2c1CCCCC2N1CCN(c2ccc(C(=O)NS(=O)(=O)c3ccc(NCC4CCOCC4)c([N+](=O)[O-])c3)c(Oc3cnc4[nH]ccc4c3)c2)CC1 (stereo not drawn) [Compound 63, 2-((1H-pyrrolo[2,3-b]pyridin-5-yl)oxy)-4-(4-(1-(dimethylphosphoryl)-6,7,8,9-tetrahydro-5H-benzo[7]annulen-5-yl)piperazin-1-yl)-N-((3-nitro-4-(((tetrahydro-2H-pyran-4-yl)methyl)amino)phenyl)sulfonyl)benzamide] | > 5000
< 20 | 20 to 200 | O=C(NS(=O)(=O)c1ccc(NCC2COC3OCCC23)c([N+](=O)[O-])c1)c1ccc(N2CCN(C3CCCCc4c(Cl)cccc43)CC2)cc1Oc1cnc2[nH]ccc2c1 (stereo not drawn) [Compound 64, 2-((1H-pyrrolo[2,3-b]pyridin-5-yl)oxy)-4-(4-(1-chloro-6,7,8,9-tetrahydro-5H-benzo[7]annulen-5-yl)piperazin-1-yl)-N-((4-(((hexahydrofuro[2,3-b]furan-3-yl)methyl)amino)-3-nitrophenyl)sulfonyl)benzamide] | 50 to 500
< 20 | < 20 | CC(=O)N1CCN(CCNc2ccc(S(=O)(=O)NC(=O)c3ccc(N4CCN([C@@H]5CCCCc6c(Br)cccc65)CC4)cc3Oc3cnc4[nH]ccc4c3)cc2[N+](=O)[O-])CC1 [Compound 65, (R)-2-((1H-pyrrolo[2,3-b]pyridin-5-yl)oxy)-N-((4-((2-(4-acetylpiperazin-1-yl)ethyl)amino)-3-nitrophenyl)sulfonyl)-4-(4-(1-bromo-6,7,8,9-tetrahydro-5H-benzo[7]annulen-5-yl)piperazin-1-yl)benzamide] | < 50
< 20 | 20 to 200 | O=C(NS(=O)(=O)c1ccc(NCC2CCOCC2)c([N+](=O)[O-])c1)c1ccc(N2CCN([C@@H]3CCCCc4c(Br)cccc43)CC2)cc1Oc1cnc2[nH]ccc2c1 [Compound 66, (R)-2-((1H-pyrrolo[2,3-b]pyridin-5-yl)oxy)-4-(4-(1-bromo-6,7,8,9-tetrahydro-5H-benzo[7]annulen-5-yl)piperazin-1-yl)-N-((3-nitro-4-(((tetrahydro-2H-pyran-4-yl)methyl)amino)phenyl)sulfonyl)benzamide] | < 50
< 20 | 20 to 200 | O=C(NS(=O)(=O)c1ccc(NCC2CCC3(CC2)COC3)c([N+](=O)[O-])c1)c1ccc(N2CCN([C@@H]3CCCCc4c(Br)cccc43)CC2)cc1Oc1cnc2[nH]ccc2c1 [Compound 67, (R)-2-((1H-pyrrolo[2,3-b]pyridin-5-yl)oxy)-N-((4-(((2-oxaspiro[3.5]nonan-7-yl)methyl)amino)-3-nitrophenyl)sulfonyl)-4-(4-(1-bromo-6,7,8,9-tetrahydro-5H-benzo[7]annulen-5-yl)piperazin-1-yl)benzamide] | < 50
< 20 | < 20 | O=C(NS(=O)(=O)c1ccc(NCCN2CCC3(CC2)COC3)c([N+](=O)[O-])c1)c1ccc(N2CCN([C@@H]3CCCCc4c(Br)cccc43)CC2)cc1Oc1cnc2[nH]ccc2c1 [Compound 68, (R)-2-((1H-pyrrolo[2,3-b]pyridin-5-yl)oxy)-N-((4-((2-(2-oxa-7-azaspiro[3.5]nonan-7-yl)ethyl)amino)-3-nitrophenyl)sulfonyl)-4-(4-(1-bromo-6,7,8,9-tetrahydro-5H-benzo[7]annulen-5-yl)piperazin-1-yl)benzamide] | < 50
< 20 | < 20 | CN1CCC(CNc2ccc(S(=O)(=O)NC(=O)c3ccc(N4CCN([C@@H]5CCCCc6c(Br)cccc65)CC4)cc3Oc3cnc4[nH]ccc4c3)cc2[N+](=O)[O-])CC1 [Compound 69, (R)-2-((1H-pyrrolo[2,3-b]pyridin-5-yl)oxy)-4-(4-(1-bromo-6,7,8,9-tetrahydro-5H-benzo[7]annulen-5-yl)piperazin-1-yl)-N-((4-(((1-methylpiperidin-4-yl)methyl)amino)-3-nitrophenyl)sulfonyl)benzamide] | < 50
< 20 | 20 to 200 | O=C(NS(=O)(=O)c1ccc(NCC2CCC3(CC2)COC3)c([N+](=O)[O-])c1)c1ccc(N2CCN([C@@H]3CCCCc4c(Cl)cccc43)CC2)cc1Oc1cnc2[nH]ccc2c1 [Compound 71, (R)-2-((1H-pyrrolo[2,3-b]pyridin-5-yl)oxy)-N-((4-(((2-oxaspiro[3.5]nonan-7-yl)methyl)amino)-3-nitrophenyl)sulfonyl)-4-(4-(1-chloro-6,7,8,9-tetrahydro-5H-benzo[7]annulen-5-yl)piperazin-1-yl)benzamide] | < 50
< 20 | 20 to 200 | O=C(NS(=O)(=O)c1ccc(NCC2CC3(COC3)C2)c([N+](=O)[O-])c1)c1ccc(N2CCN([C@@H]3CCCCc4c(Cl)cccc43)CC2)cc1Oc1cnc2[nH]ccc2c1 [Compound 72, (R)-2-((1H-pyrrolo[2,3-b]pyridin-5-yl)oxy)-N-((4-(((2-oxaspiro[3.3]heptan-6-yl)methyl)amino)-3-nitrophenyl)sulfonyl)-4-(4-(1-chloro-6,7,8,9-tetrahydro-5H-benzo[7]annulen-5-yl)piperazin-1-yl)benzamide] | < 50
